Laboratory results from PMC2851491 (The Journal of infectious diseases, 2010).
Where two headings read alike, the source gives them in different places.

What was measured:
[1] = system: A/Wisconsin/67/2005 (H3N2); assay: microbe, parasite or virus in culture; format: cell-based, influenza A/H3N2 virus
[2] = system: Day 0 wild-type isolate (A/Bethesda/NIH12-0/2008); assay: microbe, parasite or virus in culture; format: cell-based, influenza A/H3N2 virus
[3] = target: NA of Day 0 wild-type isolate (A/Bethesda/NIH12-0/2008) (Influenza A virus, UniProt D3XBZ2); format: biochemical, influenza A/H3N2 virus; conditions: read-out: NA-inhibition Assay IC50 (95% CI)
[4] = target: NA of Day 8 isolate (deletion in NA of AA 245–248) (Influenza A virus, UniProt D3XBZ2, DEL245-248); assay: biochemical; format: biochemical, influenza A/H3N2 virus
[5] = system: Day 8 isolate (deletion in NA of AA 245–248); format: cell-based, influenza A/H3N2 virus; conditions: read-out: High Throughput Assay EC50 (95% CI)
[6] = system: Day 0 wild-type isolate (A/Bethesda/NIH12-0/2008); format: cell-based, influenza A/H3N2 virus; conditions: read-out: Plaque Reduction Assay IC50 (95% CI)
[7] = system: Day 8 isolate (deletion in NA of AA 245–248); format: cell-based, influenza A/H3N2 virus; conditions: for IC50: read-out: Plaque Reduction Assay IC50 (95% CI)
[8] = read-out: High Throughput Assay EC50 (95% CI)

Row | SMILES | EC50 ([1]; Influenza A virus, H3N2, read-out: High Throughput Assay EC50) [nM] | EC50 ([2]; Influenza A virus, in Homo sapiens, 0 h, read-out: High Throughput Assay EC50) [nM] | IC50 [3] [nM] | IC50 [4] [nM] | fold increase in IC50, NA activity assay [4] [fold] | fold increase in IC50 / IC50/EC50, summary over drug sensitivity assays [4] [fold] | EC50 [1, 8] [nM] | EC50 [2, 8] [nM] | EC50 [5] [nM] | IC50 [6] [nM] | fold increase in IC50, plaque reduction assay [7] [fold] | IC50 [7] [nM]
1 | NC12CC3CC(CC(C3)C1)C2 [Amantadine, amantadine] | > 200000 | > 200000 |  |  |  |  |  |  |  |  |  | 
2 | CC(=O)N[C@H]1[C@H]([C@H](O)[C@H](O)CO)OC(C(=O)O)=C[C@@H]1N=C(N)N [Zanamivir, zanamivir] |  |  | 4 | 12.7 | 3 | 3 to 7 | 6.16 | 18.9 | 131 | 15.6 | 14 | 224
3 | CCOC(=O)C1=C[C@@H](OC(CC)CC)[C@H](NC(C)=O)[C@@H](N)C1 [Oseltamivir, oseltamivir] |  |  |  |  |  |  | 0.37 | 0.21 | 443 | 0.38 |  | 49.7
